Measured values published in US20160296606A1, “Cellular Factor-Containing Solution Compositions for the Treatment of Rhinovirus Infection and Symptoms” (Noveome Biotherapeutics, Inc., priority 2015, published 2016).
Counter-ions that a name gives are not always drawn.

Legend:
[1] = system: vascular permeability (histamine-induced); assay: Evans Blue assay of vascular permeability, histamine with ACCS or CPM (Example 6); format: in vivo, rats (Sprague-Dawley); settings: 198 μg total protein ACCS or 50 μg CPM
Protocol: Method: […] The Evan's Blue dye binds to albumin and other plasma proteins present in the blood and circulates throughout the animal's entire vascular system. Increased vascular permeability results in extravasation from blood vessels and capillaries of the Evans Blue dye bound to plasma protein. […] After approximately 20 min, the animals were sacrificed, and an area of skin that included the entire injection site was removed with punch biopsy.

[2] = system: vascular permeability (histamine-induced); assay: Miles assay, Evans Blue dye extravasation after intradermal injection (Example 5); format: in vivo, rat; settings: 1 μg histamine alone intradermally (inducer of vascular permeability)
Protocol: Method: One hundred μL of 5% Evans Blue Dye was administered intravenously to an approximately 260 gram male rat via a jugular vein catheter. The Evans Blue dye binds to albumin and other proteins present in the blood and circulates throughout the animal's entire vascular system. One hundred μL of various test articles were then injected intradermally on the flank of the animal forming a small vesicular bleb of the injected article under on the skin surface. Changes in local vascular permeability were observed by the development of a blue spot corresponding to the Evans Blue bound protein extravasate at the injection site. Results were recorded qualitatively through photograph. The changes in Evans Blue Dye extravasation was quantitatively measured by the excision of the blue skin sample after animal sacrifice and placing the excised skin sample in 1 mL of formamide in order to extract the dye. The dye was extracted over 48 hours at 60° C. The extracted dye was then read on a plate reader for absorbance measurement at 630 nm.
The local extravasation of protein-bound Evans Blue Dye at the site of injection is correlated with the increase in vascular permeability. […] Saline and ACCS were also injected alone to serve as negative controls.

[3] = system: irritant (TPA) skin inflammation; assay: Intralesional injection in irritant TPA skin (ear) inflammation in mice; format: in vivo
Protocol: Method: Intralesional injection into the ear was given once daily to the following groups: 1. TPA+intralesional control; 2. TPA+intralesional ACCS; 3. TPA+intralesional kenalog (10 mg/ml) (a potent intralesional corticosteroid); 4. ACCS intralesional injection alone; 5. Saline sham injections to the normal untreated ear. The endpoints for the study were ear thickness and ear weight at the end of the experiment. The thicker the ear and the increased weight gain correlates with the degree of inflammation.

CN(C)CCC(c1ccc(Cl)cc1)c1ccccn1 (centres unmarked) [CPM, chlorpheniramine maleate]
ABS 630 nm/μg tissue ([1]; histamine dose 0.05 μg intradermal): 0.07 ABS 630 nm/μg tissue | ABS 630 nm/μg tissue ([1]; histamine dose 0.5 μg intradermal): 0.10 ABS 630 nm/μg tissue | ABS 630 nm/μg tissue ([1]; histamine dose 1 μg intradermal): 0.10 ABS 630 nm/μg tissue | ABS 630 nm/μg tissue ([1]; histamine dose 3 μg intradermal): 0.11 ABS 630 nm/μg tissue

NCCc1c[nH]cn1 [histamine]
OD 630 absorbance of extracted Evans Blue dye from tissue samples [2]: 0.495 OD units

CC1(C)O[C@@H]2C[C@H]3[C@@H]4CCC5=CC(=O)C=C[C@]5(C)[C@@]4(F)[C@@H](O)C[C@]3(C)[C@]2(C(=O)CO)O1 [kenalog]
injection site finding ([3]; intralesional injection 10 mg/ml into mouse ear): induced a hematoma at the site of injection | inflammation induced by TPA (ear thickness) ([3]; intralesional injection into the ear once daily, vs TPA+control): not a substantial difference in ear thickness | ear weight ([3]; intralesional injection once daily, compared with TPA+control): no difference in ear weight
